We go through 44 compounds from patent publication US10183936B2, “Hepatitis B core protein allosteric modulators” (priority 2014, dated 2019).

In series [1] the test system is HBV viral production in AD38 cells. The series is described as follows: Viral load production in AD38 cells by quantitative PCR of the HBV core sequence in supernatant. In kind it is cell-based. The settings on record: Hepatitis B virus, 144 h; 10 μM compound, 6 days at 37° C., viral load in supernatant compared against DMSO control wells; read-out: AD38 Viral Load (CpAM/DMSO %) at 10 μM. A digest of the protocol: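 Read-out is TaqMan qPCR of the HBV core region in supernatant, quantitated against standards and referenced to DMSO controls (≥3 per plate). Cells: AD38 at 50,000/well, exposed to compound (added as 10× stock in 10% DMSO) for 6 days at 37° C.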

A further series concerns AD38 cells. The series is described as follows: Viability of AD38 cells (Promega CellTiter-Glo) at the end of compound treatment. In kind it is cell-based. The settings on record: 10 μM compound, 6 days, luminescence normalized against DMSO control wells (controls being 100%). A digest of the protocol:
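Luminescent CellTiter-Glo read-out, taken after supernatant was swapped for tetracycline-free 2% FBS medium with 1% DMSO, gave percent viability relative to DMSO controls set at 100%. Cells were plated at 50,000/well and exposed to compound, added as a 10× stock in 10% DMSO, for 6 days at 37° C.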
In general terms: Cellular ATP, detected with luciferase, serves as a proxy for viable cell number.

For `CN1C(=O)c2ccccc2Sc2ccc(C(=O)NCc3cncs3)cc21` [Compound 1573], the activity at 10 µM in series [1] amounted to 46%. In addition, the “AD38 Viability Normalized Result (CPAM/DMSO %) at 10 μM” value in the series with AD38 cells is 126%.
Take `CN1C(=O)c2ccccc2Sc2ccc(C(=O)NCc3cncnc3)cc21` [Compound 1574]: in series [1], the activity at 10 µM is 78%. Moreover, the “AD38 Viability Normalized Result (CPAM/DMSO %) at 10 μM” value in the series on AD38 cells is 109%.
On the same counts, the results for `NC(=O)c1ccc2c(c1)NC(=O)c1ccccc1[S+]2[O-]` (stereo not shown) [Compound 1575] are 90% and 108%.
On to `Cc1nnc(CNC(=O)c2ccc3c(c2)NC(=O)c2ccccc2S3)o1` [Compound 1578], for which the activity at 10 µM in series [1] is 33%. In the series with AD38 cells, the “AD38 Viability Normalized Result (CPAM/DMSO %) at 10 μM” value is listed as 100%.
`O=C(NCCc1cnco1)c1ccc2c(c1)NC(=O)c1c(F)cccc1S2` [Compound 1580]: in series [1], the activity at 10 µM was 59%. Also, the “AD38 Viability Normalized Result (CPAM/DMSO %) at 10 μM” value in the series with AD38 cells is listed as 89%.
With `CN1c2ccc(C(=O)NCc3cncs3)cc2NC(=O)c2ccccc21` [Compound 1581], the activity at 10 µM in series [1] was determined as 3%. Also, the “AD38 Viability Normalized Result (CPAM/DMSO %) at 10 μM” value in the series on AD38 cells turned out to be 97%.
On the same counts, the results for `NC(=O)CSc1nnc(CCNC(=O)c2ccc3c(c2)NC(=O)c2ccccc2S3)o1` [Compound 1582] are 8% and 112%.
The like results for `Cc1nnc(CCNC(=O)c2ccc3c(c2)NC(=O)c2ccccc2S3)[nH]1` [Compound 1583] were, in that order, 41% and 121%.
For the compound `O=C(NCc1cscn1)c1ccc2c(c1)NC(=O)c1ccccc1S2` [Compound 1584], the activity at 10 µM in series [1] worked out at 52%. Moreover, the “AD38 Viability Normalized Result (CPAM/DMSO %) at 10 μM” value in the series with AD38 cells is listed as 95%.
The like results for `O=C(NCc1ccncn1)c1ccc2c(c1)NC(=O)c1ccccc1S2` [Compound 1585] were, in that order, 66% and 87%.
`O=C(NCc1cnccn1)c1ccc2c(c1)NC(=O)c1ccccc1S2` [Compound 1586]: the activity at 10 µM in series [1] was found to be 23%. Moreover, the “AD38 Viability Normalized Result (CPAM/DMSO %) at 10 μM” value with AD38 cells amounted to 112%.
As to `O=C(NCc1ncccn1)c1ccc2c(c1)NC(=O)c1ccccc1S2` [Compound 1587], the activity at 10 µM in series [1] was found to be 78%. Further, the “AD38 Viability Normalized Result (CPAM/DMSO %) at 10 μM” value with AD38 cells was 92%.
As for `Cc1ncc(CNC(=O)c2ccc3c(c2)NC(=O)c2ccccc2S3)s1` [Compound 1588], the activity at 10 µM in series [1] turned out to be 0%. In the series on AD38 cells, the “AD38 Viability Normalized Result (CPAM/DMSO %) at 10 μM” value amounted to 98%.
On the same counts, the results for `O=C(NCc1cnc(Cl)s1)c1ccc2c(c1)NC(=O)c1ccccc1S2` [Compound 1589] are 1% and 85%.
Take `O=C(NCc1cnc(-c2ccccc2)s1)c1ccc2c(c1)NC(=O)c1ccccc1S2` [Compound 1590]: the activity at 10 µM in series [1] stood at 1%. In the series on AD38 cells, the “AD38 Viability Normalized Result (CPAM/DMSO %) at 10 μM” value stood at 96%.
The like results for `O=C(NCc1cccnc1)c1ccc2c(c1)NC(=O)c1ccccc1C2` [Compound 1591] were, in that order, 13% and 111%.
As to `O=C(NCC1CCCO1)c1ccc2c(c1)NC(=O)c1ccccc1S2` (stereo not shown) [Compound 1592], the activity at 10 µM in series [1] is 50%. For the same compound, in the series on AD38 cells, the “AD38 Viability Normalized Result (CPAM/DMSO %) at 10 μM” value is given as 102%.
The like results for `O=C(NCc1cncs1)c1ccc2c(c1)NC(=O)c1ccccc1O2` [Compound 1593] were, in that order, 3% and 133%.
With `O=C(NCc1cccnc1)c1ccc2c(c1)NC(=O)c1ccccc1O2` [Compound 1594], the activity at 10 µM in series [1] is 4%. In the series on AD38 cells, the “AD38 Viability Normalized Result (CPAM/DMSO %) at 10 μM” value came to 109%.
On the same counts, the results for `O=C(NCc1cncnc1)c1ccc2c(c1)NC(=O)c1ccccc1O2` [Compound 1595] are 3% and 108%.
In the case of `O=C1Nc2cc(S(=O)(=O)NCCc3cncnc3)ccc2Sc2ccccc21` [Compound 1597], the activity at 10 µM in series [1] stood at 64%. Also, the “AD38 Viability Normalized Result (CPAM/DMSO %) at 10 μM” value in the series with AD38 cells turned out to be 87%.
As to `O=C(NCCc1cncs1)c1ccc2c(c1)NC(=O)c1c(F)cccc1S2` [Compound 1598], the activity at 10 µM in series [1] worked out at 61%. Moreover, the “AD38 Viability Normalized Result (CPAM/DMSO %) at 10 μM” value in the series with AD38 cells turned out to be 93%.
Turning to `O=C(NCc1nnc[nH]1)c1ccc2c(c1)NC(=O)c1ccccc1S2` [Compound 1599], the activity at 10 µM in series [1] is 72%. Moreover, the “AD38 Viability Normalized Result (CPAM/DMSO %) at 10 μM” value in the series on AD38 cells stood at 101%.
The like results for `Cc1ncsc1CNC(=O)c1ccc2c(c1)NC(=O)c1ccccc1S2` [Compound 1600] were, in that order, 12% and 108%.
`CC(=O)N1CCC(CNC(=O)c2ccc3c(c2)NC(=O)c2ccccc2S3)CC1` [Compound 1601, N-((1-acetylpiperidin-4-yl)methyl)-11-oxo-10, 11-dihydrodibenzo [b,f] [1,4] thiazepine-8-carboxamide]: the activity at 10 µM in series [1] came out at 62%. Further, in the series with AD38 cells, the “AD38 Viability Normalized Result (CPAM/DMSO %) at 10 μM” value worked out at 106%.
In the case of `O=C(NCc1cncs1)c1ccc2c(c1)NC(=O)c1ccccc1N2` [Compound 1602, 11-oxo-N-(thiazol-5-ylmethyl)-10, 11-dihydro-5H-dibenzo [b,e] [1,4] diazepine-8-carboxamide], in series [1], the activity at 10 µM amounted to 38%. The “AD38 Viability Normalized Result (CPAM/DMSO %) at 10 μM” value with AD38 cells turned out to be 116%.
With `Cc1nnc(CCNC(=O)c2ccc3c(c2)NC(=O)c2ccccc2S3)o1` [Compound 1603], the activity at 10 µM in series [1] came out at 6%. In addition, the “AD38 Viability Normalized Result (CPAM/DMSO %) at 10 μM” value with AD38 cells was 91%.
On to `CCc1ncc(CNC(=O)c2ccc3c(c2)NC(=O)c2ccccc2S3)s1` [Compound 1604], for which, in series [1], the activity at 10 µM is 0%. Moreover, the “AD38 Viability Normalized Result (CPAM/DMSO %) at 10 μM” value in the series with AD38 cells is recorded as 105%.
`O=C(NCc1scnc1-c1ccccc1)c1ccc2c(c1)NC(=O)c1ccccc1S2` [Compound 1605]: in series [1], the activity at 10 µM amounted to 25%. For the same compound, in the series on AD38 cells, the “AD38 Viability Normalized Result (CPAM/DMSO %) at 10 μM” value was determined as 106%.
The like results for `O=C(NCC1CCOC1)c1ccc2c(c1)NC(=O)c1ccccc1S2` (stereo not shown) [Compound 1606] were, in that order, 7% and 104%.
On the same counts, the results for `O=C(NCC1CCOCC1)c1ccc2c(c1)NC(=O)c1ccccc1S2` [Compound 1607] are 14% and 93%.
For the compound `Cl.O=C(NCC1CCNC1)c1ccc2c(c1)NC(=O)c1ccccc1S2` (stereo not shown) [Compound 1608, 11-oxo-N-(pyrrolidin-3-ylmethyl)-10, 11-dihydrodibenz[b,f] [1,4] thiazepine-8-carboxamide hydrochloride], the activity at 10 µM in series [1] amounted to 63%. Besides, the “AD38 Viability Normalized Result (CPAM/DMSO %) at 10 μM” value in the series on AD38 cells was 103%.
For the compound `Cl.O=C(NCC1CCNCC1)c1ccc2c(c1)NC(=O)c1ccccc1S2` [Compound 1609, 11-oxo-N-(piperidin-4-ylmethyl)-10, 11-dihydrodibenzo [b,f] [1,4] thiazepine-8-carboxamide hydrochloride], in series [1], the activity at 10 µM worked out at 68%. Moreover, the “AD38 Viability Normalized Result (CPAM/DMSO %) at 10 μM” value with AD38 cells was found to be 99%.
For the compound `CC(C)c1ncc(CNC(=O)c2ccc3c(c2)NC(=O)c2ccccc2S3)s1` [Compound 1611], in series [1], the activity at 10 µM worked out at 0%. For the same compound, in the series on AD38 cells, the “AD38 Viability Normalized Result (CPAM/DMSO %) at 10 μM” value is listed as 130%.
The like results for `COc1ncc(CNC(=O)c2ccc3c(c2)NC(=O)c2ccccc2S3)s1` [Compound 1612] were, in that order, 0% and 112%.
Turning to `Nc1ncc(CNC(=O)c2ccc3c(c2)NC(=O)c2ccccc2S3)s1` [Compound 1613], the activity at 10 µM in series [1] stood at 0%. In addition, in the series on AD38 cells, the “AD38 Viability Normalized Result (CPAM/DMSO %) at 10 μM” value amounted to 122%.
For the compound `CC(C)c1ncsc1CNC(=O)c1ccc2c(c1)NC(=O)c1ccccc1S2` [Compound 1614], the activity at 10 µM in series [1] stood at 2%. For the same compound, in the series on AD38 cells, the “AD38 Viability Normalized Result (CPAM/DMSO %) at 10 μM” value stood at 45%.
In the case of `CC(=O)N1CCC(CNC(=O)c2ccc3c(c2)NC(=O)c2ccccc2S3)C1` (stereo not shown) [Compound 1615, N-((1-acetylpyrrolidin-3-yl)methyl)-11-oxo-10, 11-dihydrodibenzo [b,f] [1,4] thiazepine-8-carboxamide], the activity at 10 µM in series [1] was found to be 32%. The “AD38 Viability Normalized Result (CPAM/DMSO %) at 10 μM” value in the series on AD38 cells came to 123%.
`O=C(NCCc1cnco1)c1ccc2c(c1)NC(=O)c1ccccc1S2(=O)=O` [Compound 1616]: the activity at 10 µM in series [1] came to 5%. Further, the “AD38 Viability Normalized Result (CPAM/DMSO %) at 10 μM” value in the series with AD38 cells stood at 115%.
On to `O=C(NCCc1cncs1)c1ccc2c(c1)NC(=O)c1ccccc1S2(=O)=O` [Compound 1617], for which the activity at 10 µM in series [1] worked out at 1%. Besides, the “AD38 Viability Normalized Result (CPAM/DMSO %) at 10 μM” value with AD38 cells is 118%.
As to `O=C(NCCc1ccc(-c2ccccc2)cc1)c1ccc2c(c1)NC(=O)c1ccccc1S2(=O)=O` [Compound 1618], the activity at 10 µM in series [1] stood at 0%. Also, the “AD38 Viability Normalized Result (CPAM/DMSO %) at 10 μM” value with AD38 cells is recorded as 44%.
Regarding `CN(C)S(=O)(=O)c1ccc(CCNC(=O)c2ccc3c(c2)NC(=O)c2ccccc2S3(=O)=O)cc1` [Compound 1619], the activity at 10 µM in series [1] was 12%. Moreover, the “AD38 Viability Normalized Result (CPAM/DMSO %) at 10 μM” value with AD38 cells is listed as 122%.
Turning to `O=C(NCc1ccccc1)c1ccc2c(c1)NC(=O)c1ccccc1S2(=O)=O` [Compound 1620], the activity at 10 µM in series [1] stood at 3%. In addition, the “AD38 Viability Normalized Result (CPAM/DMSO %) at 10 μM” value in the series on AD38 cells came out at 111%.
On to `Cc1cccc(CNC(=O)c2ccc3c(c2)NC(=O)c2ccccc2S3(=O)=O)c1` [Compound 1621], for which the activity at 10 µM in series [1] stood at 1%. For the same compound, the “AD38 Viability Normalized Result (CPAM/DMSO %) at 10 μM” value in the series on AD38 cells came to 117%.
